Measured values: patent US20090274773A1, “ANTIPROLIFERATIVE COMBINATION COMPRISING CYC-682 AND A CYTOTOXIC AGENT” (Cyclacel Limited, priority 2005, published 2009)
Read-outs that look alike come from different tables or passages of the source.

Key:
Assay type in all cases: cell-based, human
[1] = system: NSCLC cell line H1299; assay: CNDAC combinations (alamar blue, Calcusyn Combination Index); details: for Combination Index at ED50, Concomitant / Combination Index at ED75, Concomitant / Combination Index at ED90, Concomitant: simultaneous treatment 72 h
Protocol: Experiments in the NSCLC cell lines H1299 or RERF-LC-MA were performed in 96-well plates, with cells seeded at a density of 3,000/well, in DMEM containing 10% (v/v) FCS. Stock solutions of all drugs were made up in dimethylsulfoxide (DMSO), with the exception of gemcitabine, which was dissolved in 0.9% (w/v) sterile saline solution.
For experimental assessment of potential synergistic interactions, the concomitant treatment regime involved simultaneous treatment of cells with CNDAC and the other agent under investigation for 72 h, alongside suitable controls of cells treated with the individual compounds alone for 72 hr. In the sequential treatment regimes, one drug was added to the cells 2 h after plating, and left for 24 h. Media was then aspirated, replaced with fresh media containing the second drug and incubated for 72 h. The two individual treatment controls for the sequential treatment regime involved substituting one of the drug treatments with drug-free media. […] Drug interactions were analysed using the Calcusyn software package (BioSoft, Cambridge, U.K.) described below.

[2] = system: HCT116 cancer cell line; assay: CYC682 drug-combination study (MTT, Chou and Talalay combination index, isobolograms); details: HCT116
Protocol: (§1) For simultaneous drug exposure, cells were seeded at 2×10^3 cells/well in 96-well plates and treated 24 hours later with increasing concentrations of CYC682 alone or with various concentrations of another drug corresponding to the IC20, IC40 or IC60 values. After approximately four doubling times (120 hours), the growth inhibitory effect was measured by the MTT assay.
(§2) Cells were seeded at 2×10^3 cells/well in 96-well plates and allowed to grow for 24 hour. Cells were then exposed to various concentrations of the first drug for 1 hour/24 hours/48 hours, the drug was removed, the cells were washed and the second drug was added. After additional drug exposure, the second drug was removed, the cells were washed and incubated in drug-free medium for 72 hours. Growth inhibition was then determined by the MTT assay.
(§3) Effects of drug combinations were evaluated using the Chou and Talalay method which is based on the median-effect principle (Chou T C, Talalay P. Quantitative analysis of dose-effect relationships: the combined effects of multiple drugs or enzyme inhibitors. Adv Enzyme Regul. 1984; 22:27-55). […] On the basis of the slope of the curve for each drug in a combination, it can be determined whether the drugs have mutually nonexclusive effects (e.g., independent or interactive modes of action).
(§4) The combination index (CI) is then determined by the equation:
(§5) CI=[(C)1/(Cx)1]+[(C)2/(Cx)2]+[α(C)1(C)2/(Cx)1(Cx)2],
(§6) where (Cx)1 is the concentration of drug 1 required to produce an x percent effect of that drug alone, and (C)1, the concentration of drug 1 required to produce the same x percent effect in combination with (C)2. If the mode of action of the drugs is mutually exclusive or nonexclusive, then α is 0 or 1, respectively. CI values will be calculated with this equation using different values of fa (i.e., for different degrees of cell growth inhibition). CI values of <1 indicate synergy, the value of 1 indicates additive effects, and values >1 indicate antagonism. Data were analyzed on an IBM-PC computer using concentration-effect analysis for microcomputer software (Biosoft, Cambridge, UK). For statistical analysis and graphs we will use Instat and Prism software (GraphPad, San Diego, USA). The dose-effect relationships for the drugs tested, alone or in paired combinations, were subjected to median-effect plot analysis to determine their relative potency (IC50), shape (m), and conformity (r) in each selected cell line. As stated above, the IC50 and m values were respectively used to calculate synergism and antagonism on the basis of the CI equation. Results were expressed as the mean±standard deviation of at least 3 experiments performed in duplicate. In each experiment, cells were exposed to the paired combinations for 48 hours as described above. Means and standard deviations were compared using Student's t-test (two-sided p value).
(§7) The effect of sequential and simultaneous exposure (FIG. 2) to CYC682 with oxaliplatin, doxorubicin, docetaxel and gemcitabine was studied in two sensitive colon cancer cell lines—COLO205 and HCT116 using combination indices that represent an affected fraction for the concentration of drugs corresponding to IC50 as previously described by Chou and Talalay.

[3] = system: COLO205 cancer cell line; assay: as above; details: COLO205
Protocol: as §1, §2, §3, §4, §5, §6, §7

[4] = system: MCF7; assay: MTT growth inhibition assay, single agent; details: 24 hours exposure, read-out: Antiproliferative effects IC50s (MTT assay)
Protocol: (§8) All cell lines were obtained from the ATCC (Rockville, Md.). Cells were grown as monolayers in RPMI medium supplemented with 10% fetal calf serum (Invitrogen, Cergy-Pontoise, France), 2 mM glutamine, 100 units/ml penicillin and 100 μg/ml streptomycin. All cells were split twice a week using trypsin/EDTA (0.25% and 0.02%, respectively; Invitrogen, Cergy-Pontoise, France) and seeded at a concentration of 2.5×10^4 cells/ml. All cell lines were tested regularly for Mycoplasma contamination by PCR using a Stratagene kit (La Jolla, Calif.).
(§9) The MTT assay was carried out as described previously (Hansen M B, Nielsen S E, Berg K. Re-examination and further development of a precise and rapid dye method for measuring cell growth/cell kill. J Immunol Methods. 1989 May 12; 119(2):203-10). In brief, cells were seeded in 96-well tissue culture plates at a density of 2×10^3 cells/well. Cell viability was determined after a 120-hour incubation, by the calorimetric conversion of yellow, water-soluble tetrazolium MTT (3-[4,5-dimethylthiazol-2-yl]-2,5-diphenyltetrazolium bromide; Sigma, Saint-Quentin Fallavier, France), into purple, water-insoluble formazan. This reaction is catalyzed by mitochondrial dehydrogenases and is used to estimate the relative number of viable cells (Mosmann, T, Rapid calorimetric assay for cellular growth and survival: application to proliferation and cytotoxicity assays. J Immunol Methods. 1983 Dec. 16; 65 (1-2):55-63). Cells were incubated with 0.4 mg/ml MTT for 4 hours at 37° C. After incubation, the supernatant was discarded, the cell pellet was resuspended in 0.1 ml of DMSO and the absorbance was measured at 560 nm using a microplate reader (Dynatech, Michigan). Wells with untreated cells or with drug-containing medium without cells were used as positive and negative controls, respectively. Growth inhibition curves were plotted as a percentage of untreated control cells.
(§10) The cells were seeded at 2×10^3 cells/well in 96-well plates and treated 24 hours later with increasing concentrations of CYC682. After incubation times of 1 hour, 24 hours or 48 hours, the cells were washed and post-incubated in drug-free medium for 72 hours. Growth inhibition was then determined by the MTT assay.

[5] = system: OVCAR1; assay: MTT growth inhibition assay, single agent; details: 24 hours exposure, read-out: Antiproliferative effects IC50s (MTT assay)
Protocol: as §8, §9, §10

[6] = system: HOP92; assay: MTT growth inhibition assay, single agent; details: read-out: Antiproliferative effects IC50s (MTT assay)
Protocol: as §8, §9, §10

[7] = system: HT29; assay: MTT growth inhibition assay, single agent; details: read-out: Antiproliferative effects IC50s (MTT assay)
Protocol: as §8, §9, §10

[8] = system: HOP62; assay: MTT growth inhibition assay, single agent; details: read-out: Antiproliferative effects IC50s (MTT assay)
Protocol: as §8, §9, §10

[9] = system: HCT116; assay: MTT growth inhibition assay, single agent; details: read-out: Antiproliferative effects IC50s (MTT assay)
Protocol: as §8, §9, §10

[10] = system: COLO205; assay: MTT growth inhibition assay, single agent; details: read-out: Antiproliferative effects IC50s (MTT assay)
Protocol: as §8, §9, §10

[11] = system: MDA-MB-435; assay: MTT growth inhibition assay, single agent; details: 24 hours exposure, read-out: Antiproliferative effects IC50s (MTT assay)
Protocol: as §8, §9, §10

[12] = system: HCC2998; assay: MTT growth inhibition assay, single agent; details: read-out: Antiproliferative effects IC50s (MTT assay)
Protocol: as §8, §9, §10

[13] = system: IGROV1; assay: MTT growth inhibition assay, single agent; details: read-out: Antiproliferative effects IC50s (MTT assay)
Protocol: as §8, §9, §10

[14] = named agent in combination with CNDAC, H1299
[15] = named agent given prior to CYC682
[16] = CYC682 given prior to named agent
[17] = named agent in combination with CNDAC, H1299, CNDAC 24 h then other agent 72 h
[18] = named agent in combination with CNDAC, H1299, named agent 24 h then CNDAC 72 h

Nc1ccn([C@@H]2O[C@H](CO)[C@@H](O)C2(F)F)c(=O)n1 [Gemcitabine, 2′-deoxy-2′,2′-difluorocytidine]
Interaction with CNDAC at ED50 (in words) ([1]; H1299, concomitant treatment): synergy | Interaction with CNDAC (in words), summary of Table 3 ([1]; combination with CNDAC, regime not specified): synergistic drug interactions | Combination Index at ED50, Concomitant [1, 14]: 0.65 | Combination Index at ED75, Concomitant [1, 14]: 1.83 | Combination Index at ED90, Concomitant [1, 14]: 6.11 | Interaction with CYC682 (isobologram) [2, 15]: synergistic | Interaction with CYC682 (isobologram) [3, 15]: synergistic | IC50 ([4]; Homo sapiens): 0.01 ± 0.002 µM | IC50 ([5]; Homo sapiens): 1.2 ± 0.2 µM | IC50 ([6]; Homo sapiens, HOP-92, 24 hours exposure): 0.02 ± 0.004 µM | IC50 ([7]; Homo sapiens, HT-29, 24 hours exposure): 0.015 ± 0.003 µM | IC50 ([8]; Homo sapiens, HOP-62, 24 hours exposure): 0.01 ± 0.002 µM | IC50 ([9]; Homo sapiens, HCT-116, 24 hours exposure): 0.05 ± 0.01 µM | IC50 ([10]; Homo sapiens, COLO 205, 24 hours exposure): 0.2 ± 0.1 µM | IC50 ([11]; Homo sapiens): 0.04 ± 0.008 µM | IC50 ([12]; Homo sapiens, HCC 2998, 24 hours exposure): 0.01 ± 0.002 µM | IC50 ([13]; Homo sapiens, IGROV-1, 24 hours exposure): 0.02 ± 0.004 µM

O=C(O)C(=O)O.[NH-][C@@H]1CCCC[C@H]1[NH-].[Pt+2] [Oxaliplatin]
Interaction with CYC682 (isobologram) [2, 16]: synergistic activity | Interaction with CYC682 (isobologram) [2, 15]: synergistic activity | Interaction with CYC682 (isobologram) [3, 16]: synergy | IC50 [4]: 35 ± 7 µM | IC50 [5]: 50 ± 10 µM | IC50 ([6]; 24 hours exposure): 1.4 ± 0.2 µM | IC50 ([7]; 24 hours exposure): 60 ± 12 µM | IC50 ([8]; 24 hours exposure): 200 ± 40 µM | IC50 ([9]; 24 hours exposure): 20 ± 4 µM | IC50 ([10]; 24 hours exposure): 8 ± 1.6 µM | IC50 [11]: 37 ± 21 µM | IC50 ([12]; 24 hours exposure): 4 ± 1.4 µM | IC50 ([13]; 24 hours exposure): 107 ± 21 µM

CCC1=C[C@@H]2CN(C1)Cc1c([nH]c3ccccc13)[C@@](C(=O)OC)(c1cc3c(cc1OC)N(C)[C@H]1[C@@](O)(C(=O)OC)[C@H](OC(C)=O)[C@]4(CC)C=CCN5CC[C@]31[C@@H]54)C2 [Vinorelbine]
Interaction with CNDAC (in words) ([1]; H1299, all three of the treatment regimes tested): synergy | Combination Index at ED75, CNDAC pretreatment [1, 17]: 0.67 | Combination Index at ED90, CNDAC pretreatment [1, 17]: 0.67 | Combination Index at ED50, CNDAC pretreatment ([1]; named agent in combination with CNDAC, H1299, CNDAC 24 h then other agent 72 h, C.I. <1 synergistic, 1 additive, >1 antagonistic): 1.04 | Combination Index at ED50, Other (named agent) pretreatment [1, 18]: 0.60 | Combination Index at ED75, Other (named agent) pretreatment [1, 18]: 0.56 | Combination Index at ED90, Other (named agent) pretreatment [1, 18]: 0.66 | Combination Index at ED50, Concomitant [1, 14]: 0.63 | Combination Index at ED75, Concomitant [1, 14]: 0.97 | Combination Index at ED90, Concomitant [1, 14]: 2.25
